Source: patent US8946282B2, “Indolin-2-one derivatives as protein kinase inhibitors” (Annji Pharmaceutical Co., Ltd., priority 2012, dated 2015)

How the values were obtained:
aurora B = aurora B (Homo sapiens, UniProt Q96GD4); experiment: radioisotope-based P81 filter-binding assay, aurora B kinase; format: biochemical; conditions: averaged from two independent dose-response curves; read-out: Enzyme assay IC50 Aur B
Protocol: (§1) Compounds of formula (I)-(IV) were evaluated for abilities in inhibiting protein kinases aurora B and FLT-3 activity using radioisotope-based P81 filter-binding assay (Table 1).

FLT-3 = biological target: T1, FLT-3 (Homo sapiens, UniProt P36888); experiment: radioisotope-based P81 filter-binding assay, FLT-3 kinase; format: biochemical; conditions: averaged from two independent dose-response curves; read-out: Enzyme assay IC50 FLT-3
T1 sequence (P36888 27-993): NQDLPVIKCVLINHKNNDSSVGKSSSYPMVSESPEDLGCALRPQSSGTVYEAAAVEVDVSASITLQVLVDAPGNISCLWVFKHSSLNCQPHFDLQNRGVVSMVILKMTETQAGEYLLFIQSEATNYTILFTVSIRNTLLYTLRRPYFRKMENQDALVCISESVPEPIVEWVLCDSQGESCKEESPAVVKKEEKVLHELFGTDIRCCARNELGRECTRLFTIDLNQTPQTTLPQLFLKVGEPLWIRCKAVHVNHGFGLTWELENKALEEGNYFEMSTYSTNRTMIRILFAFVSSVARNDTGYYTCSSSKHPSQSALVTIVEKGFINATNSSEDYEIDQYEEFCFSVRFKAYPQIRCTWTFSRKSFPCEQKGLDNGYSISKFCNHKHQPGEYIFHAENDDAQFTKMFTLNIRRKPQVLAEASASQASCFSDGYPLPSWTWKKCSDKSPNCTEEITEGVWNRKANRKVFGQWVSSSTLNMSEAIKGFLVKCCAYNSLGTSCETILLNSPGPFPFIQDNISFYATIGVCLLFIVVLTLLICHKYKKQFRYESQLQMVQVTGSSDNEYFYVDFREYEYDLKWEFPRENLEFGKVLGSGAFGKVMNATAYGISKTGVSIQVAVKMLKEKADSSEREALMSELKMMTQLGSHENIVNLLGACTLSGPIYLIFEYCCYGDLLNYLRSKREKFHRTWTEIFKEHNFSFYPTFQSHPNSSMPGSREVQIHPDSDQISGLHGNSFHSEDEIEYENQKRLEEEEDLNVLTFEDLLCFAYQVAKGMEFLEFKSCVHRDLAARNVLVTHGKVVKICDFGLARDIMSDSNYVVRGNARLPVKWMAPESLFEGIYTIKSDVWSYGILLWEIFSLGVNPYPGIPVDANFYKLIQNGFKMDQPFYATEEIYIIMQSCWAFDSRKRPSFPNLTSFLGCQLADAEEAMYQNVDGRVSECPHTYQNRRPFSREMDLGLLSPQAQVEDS
Protocol: as §1

[1] = tested on: MV4-11 human acute myelomonocytic leukemia cells; experiment: anti-proliferation, SRB colorimetric assay, MV4-11; format: cell-based; conditions: concentration required for 50% growth inhibition
Protocol: HCT116 human colorectal carcinoma cells (Table 3), HepG2 human hepatocellular carcinoma cells (Table 4), and MV4-11 human acute myelomonocytic leukemia cells (Table 5). Cells were treated with the test compound and the concentration required for 50% growth inhibition (IC50) determined by sulfomodamine B (SRB) colorimetric assay.

aurora B, sequence (Q96GD4 whole entry): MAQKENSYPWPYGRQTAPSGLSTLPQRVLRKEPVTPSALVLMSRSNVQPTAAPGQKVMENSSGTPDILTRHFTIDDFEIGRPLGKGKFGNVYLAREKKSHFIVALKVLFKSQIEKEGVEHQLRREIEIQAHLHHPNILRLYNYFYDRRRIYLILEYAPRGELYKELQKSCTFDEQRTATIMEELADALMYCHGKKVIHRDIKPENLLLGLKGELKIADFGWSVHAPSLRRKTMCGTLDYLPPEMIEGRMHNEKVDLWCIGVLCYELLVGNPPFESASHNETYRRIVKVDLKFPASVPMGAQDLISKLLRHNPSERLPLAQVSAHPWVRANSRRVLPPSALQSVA

| IC50 (aurora B) | IC50 (FLT-3) | IC50 [1] | melting point | SMILES |
| --- | --- | --- | --- | --- |
| 15 nM | 385 nM | 0.79 nM | 280 to 285 °C (dec.) | O=C(NC(=O)c1ccc(Cl)c(C(F)(F)F)c1)Nc1ccc2c(c1)NC(=O)/C2=C\c1ccc[nH]1 [D28, (Z)—N-(3-((1H-pyrrol-2-yl)methylene)-2-oxoindolin-6-ylcarbamoyl)-4-chloro-3-(trifluoromethyl)benzamide] |
| 689 nM | 134 nM | 2.78 nM | > 300 °C | O=C1Nc2cc(NC(=O)c3cccn(-c4cccc(C(F)(F)F)c4)c3=O)ccc2/C1=C/c1ccc[nH]1 [D113] |
| 251 nM | 91.2 nM | 1.55 nM | > 300 °C | O=C1Nc2cc(NC(=O)c3cccn(-c4cccc(Cl)c4)c3=O)ccc2/C1=C/c1ccc[nH]1 [D114] |
| > 1000 nM | 26.3 nM | 0.88 nM | > 300 °C | O=C1Nc2cc(NC(=O)c3cccn(-c4ccc(Cl)cc4)c3=O)ccc2/C1=C/c1ccc[nH]1 [D108] |
| > 1000 nM | 77.4 nM | 7.19 nM | – | O=C1Nc2cc(NC(=O)c3cccn(-c4ccc(Cl)c(C(F)(F)F)c4)c3=O)ccc2/C1=C/c1ccc[nH]1 [D109, (Z)—N-(3-((1H-pyrrol-2-yl)methylene)-2-oxoindolin-6-yl)-1-(4-chloro-(3-trifluoromethyl)phenyl)-2-oxo-1,2-dihydropyridine-3-carboxamide] |
| 145 nM | 501 nM | – | > 300 °C | O=C1Nc2cc(NC(=O)N3CCN(c4ccc(Cl)c(Cl)c4)C3=O)ccc2/C1=C/c1ccc[nH]1 [D86, (Z)—N-(3-((1H-pyrrol-2-yl)methylene)-2-oxoindolin-6-yl)-3-(3,4-dichlorophenyl)-2-oxoimidazolidine-1-carboxamide] |
| 21.5 nM | > 1000 nM | – | 262 to 267 °C (dec.) | COc1ccc(C(=O)NC(=O)Nc2ccc3c(c2)NC(=O)/C3=C\c2cccs2)cc1 [D22, (Z)-4-methoxy-N-(2-oxo-3-(thiophen-2-ylmethylene)indolin-6-ylcarbamoyl)benzamide] |

The remaining lines, values behind:

| SMILES | IC50 (aurora B) | IC50 (FLT-3) | IC50 [1] | melting point |
| --- | --- | --- | --- | --- |
| Cc1[nH]c(/C=C2\C(=O)Nc3cc(NC(=O)c4c[nH]cc(-c5ccc(F)cc5)c4=O)ccc32)c(C)c1C(=O)O [D141, (Z)-5-((6-(5-(4-fluorophenyl)-4-oxo-1,4-dihydropyridine-3-carboxamido)-2-oxoindolin-3-ylidene)methyl)-2,4-dimethyl-1H-pyrrole-3-carboxylic acid] | 3.5 nM | 2.9 nM | 0.81 nM | 283 °C |
| COc1ccc(-c2c[nH]cc(C(=O)Nc3ccc4c(c3)NC(=O)/C4=C\c3[nH]c(C)c(C(=O)O)c3C)c2=O)cc1 [D142, (Z)-5-((6-(5-(4-methoxyphenyl)-4-oxo-1,4-dihydropyridine-3-carboxamido)-2-oxoindolin-3-ylidene)methyl)-2,4-dimethyl-1H-pyrrole-3-carboxylic acid] | 4.5 nM | 24.6 nM | 6.69 nM | – |
| COc1ccc(-c2c[nH]cc(C(=O)Nc3ccc4c(c3)NC(=O)/C4=C\c3[nH]c(C)c(C(=O)NCCN4CCCC4)c3C)c2=O)cc1 [D156, (Z)—N-(3-((3,5-dimethyl-4-((2-(pyrrolidin-1-yl)ethyl)carbamoyl)-1H-pyrrol-2-yl)methylene)-2-oxoindolin-6-yl)-5-(4-methoxyphenyl)-4-oxo-1,4-dihydropyridine-3-carboxamide] | 19.2 nM | 11.6 nM | 2.57 nM | > 300 °C |
| Cc1ccc(-n2cccc(C(=O)Nc3ccc4c(c3)NC(=O)/C4=C\c3ccc[nH]3)c2=O)cc1 [D111, (Z)—N-(3-((1H-pyrrol-2-yl)methylene)-2-oxoindolin-6-yl)-2-oxo-1-p-tolyl-1,2-dihydropyridine-3-carboxamide] | 209 nM | 37.5 nM | 3.42 nM | > 300 °C |
| Cc1[nH]c(/C=C2\C(=O)Nc3cc(NC(=O)c4c[nH]cc(-c5ccc(F)cc5)c4=O)ccc32)c(C)c1CC(=O)O [D144, (Z)-2-(5-((6-(5-(4-fluorophenyl)-4-oxo-1,4-dihydropyridine-3-carboxamido)-2-oxoindolin-3-ylidene)methyl)-2,4-dimethyl-1H-pyrrol-3-yl)acetic acid] | 2.3 nM | 1.3 nM | 22.8 nM | > 300 °C |
| COc1ccc(-c2c[nH]cc(C(=O)Nc3ccc4c(c3)NC(=O)/C4=C\c3[nH]c(C)c(C(=O)N4CCOCC4)c3C)c2=O)cc1 [D155, (Z)—N-(3-((3,5-dimethyl-4-(morpholine-4-carbonyl)-1H-pyrrol-2-yl)methylene)-2-oxoindolin-6-yl)-5-(4-methoxyphenyl)-4-oxo-1,4-dihydropyridine-3-carboxamide] | 42.8 nM | 34.9 nM | 1.96 nM | 205 °C (dec.) |
| O=C1Nc2cc(NC(=O)c3cccn(-c4ccccc4F)c3=O)ccc2/C1=C/c1ccc[nH]1 [D115] | 138 nM | 535 nM | 6.69 nM | > 300 °C |
| Cc1[nH]c(/C=C2\C(=O)Nc3cc(NC(=O)c4c[nH]cc(-c5ccc(F)cc5)c4=O)ccc32)c(C)c1CCC(=O)O [D145, (Z)-3-(5-((6-(5-(4-fluorophenyl)-4-oxo-1,4-dihydropyridine-3-carboxamido)-2-oxoindolin-3-ylidene)methyl)-2,4-dimethyl-1H-pyrrol-3-yl)propanoic acid] | 3.4 nM | 1.6 nM | 9.45 nM | > 300 °C |
| Cn1cc(C(=O)Nc2ccc3c(c2)NC(=O)/C3=C\c2ccc[nH]2)c(=O)c(-c2ccc(F)cc2)c1 [D138, (Z)—N-(3-((1H-pyrrol-2-yl)methylene)-2-oxoindolin-6-yl)-5-(4-fluorophenyl)-1-methyl-4-oxo-1,4-dihydropyridine-3-carboxamide] | 94.6 nM | > 1000 nM | 17.8 nM | – |
| Cc1[nH]c(/C=C2\C(=O)Nc3cc(NC(=O)c4cccn(-c5ccc(F)cc5)c4=O)ccc32)c(C)c1CCC(=O)O [D122] | 5.5 nM | 3.5 nM | 15.8 nM | > 300 °C |
| Cc1[nH]c(/C=C2\C(=O)Nc3cc(NC(=O)c4cccn(-c5ccc(F)cc5)c4=O)ccc32)c(C)c1CC(=O)O [D121, (Z)-2-(5-((6-(1-(4-fluorophenyl)-2-oxo-1,2-dihydropyridine-3-carboxamido)-2-oxoindolin-3-ylidene)methyl)-2,4-dimethyl-1H-pyrrol-3-yl)acetic acid] | 5 nM | 7.3 nM | 3.03 nM | 275 °C (dec.) |
| COc1ccc(C(=O)NC(=O)Nc2ccc3c(c2)NC(=O)/C3=C\c2[nH]c(C)c(CC(=O)O)c2C)cc1 [D46] | 1.8 nM | 31.7 nM | – | 240 to 245 °C (dec.) |
| CN(C)c1ccc(N2CCN(C(=O)Nc3ccc4c(c3)NC(=O)/C4=C\c3ccc[nH]3)C2=O)cc1 [D93, (Z)—N-(3-((1H-pyrrol-2-yl)methylene)-2-oxoindolin-6-yl)-3-(4-(dimethylamino)-phenyl)-2-oxoimidazolidine-1-carboxamide] | 24.2 nM | 1220 nM | – | 279 to 284 °C (dec.) |
| O=C1Nc2cc(NC(=O)N3CCN(c4ccc(F)cc4)C3=O)ccc2/C1=C/c1ccc[nH]1 [D89, (Z)—N-(3-((1H-pyrrol-2-yl)methylene)-2-oxoindolin-6-yl)-3-(4-fluorophenyl)-2-oxoimidazolidine-1-carboxamide] | 37.9 nM | 74.1 nM | – | > 300 °C |
| COc1ccc(C(=O)NC(=O)Nc2cc3c(cc2F)/C(=C/c2[nH]c(C)c(CCC(=O)O)c2C)C(=O)N3)c(F)c1 [D60, (Z)-3-(5-((5-fluoro-6-(3-(2-fluoro-4-methoxybenzoyl)ureido)-2-oxoindolin-3-ylidene)methyl)-2,4-dimethyl-1H-pyrrol-3-yl)propanic acid] | 1.5 nM | 16.3 nM | – | 275 to 280 °C (dec.) |
